Laboratory results reported in ChEMBL document CHEMBL4359884, “Design, synthesis and biological evaluation of novel pleuromutilin derivatives possessing acetamine phenyl linker” (Eur J Med Chem, 2019).
Values after ≈ are worked out from the molar mass of the structure shown.

How the values were obtained:
Staphylococcus aureus [1] = assay: Antibacterial activity against Staphylococcus aureus ATCC 29213 assessed as bacterial growth inhibition incubated for 24 hrs by broth dilution method; assay type: functional; settings: ATCC 29213, 24 h
Escherichia coli [2] = assay: Antibacterial activity against Escherichia coli ATCC 25922 assessed as bacterial growth inhibition incubated for 24 hrs by broth dilution method; assay type: functional; settings: ATCC 25922, 24 h
Staphylococcus aureus [3] = assay: Antibacterial activity against Staphylococcus aureus AD3 assessed as bacterial growth inhibition incubated for 24 hrs by broth dilution method; assay type: functional; settings: AD3, 24 h
Escherichia coli [4] = assay: Antibacterial activity against Escherichia coli 9-1 assessed as bacterial growth inhibition incubated for 24 hrs by broth dilution method; assay type: functional; settings: 9-1, 24 h
Staphylococcus aureus [5] = assay: Antibacterial activity against methicillin-resistant Staphylococcus aureus ATCC 43300 assessed as bacterial growth inhibition incubated for 24 hrs by broth dilution method; assay type: functional; settings: ATCC 43300, 24 h
Staphylococcus aureus [6] = assay: Antibacterial against methicillin-resistant Staphylococcus aureus ATCC 43300 assessed as post antibiotic effect time at 4 times MIC incubated for 1 hr followed by compound washout and then incubated for 20 hrs onto MH agar plate; assay type: functional
[7] = Cmax in ICR mouse at 10 mg/kg, iv by LC-MS/MS analysis; assay type: ADME, organism-based; set-up: dose 10 mg/kg, route intravenous; settings: in vivo
Staphylococcus aureus [8] = assay: Antibacterial activity against methicillin-resistant Staphylococcus aureus infected in neutropenic thigh infection ICR/Swiss mouse model assessed reduction in colony forming unit in thigh at 20 mg/kg, iv administered 2 hrs post infection and measured at 24 hrs after drug dosage; assay type: functional
Staphylococcus aureus [9] = assay: Antibacterial against methicillin-resistant Staphylococcus aureus ATCC 43300 assessed as post antibiotic effect time at 2 times MIC incubated for 1 hr followed by compound washout and then incubated for 20 hrs onto MH agar plate; assay type: functional
Staphylococcus aureus [10] = assay: (§1) Bactericidal activity against methicillin-resistant Staphylococcus aureus ATCC 43300 assessed as reduction in colony forming unit at 4 times MIC incubated for 3 hrs followed by compound dilution with saline and then incubated for 20 hrs on MH agar plate by time-kill kinetics assay; assay type: functional
Staphylococcus aureus [11] = assay: Antibacterial against methicillin-resistant Staphylococcus aureus ATCC 43300 assessed as post antibiotic effect time at 2 times MIC incubated for 2 hrs followed by compound washout and then incubated for 20 hrs onto MH agar plate; assay type: functional
Staphylococcus aureus [12] = assay: Antibacterial activity against methicillin-resistant Staphylococcus aureus infected in systemic infection ICR mouse model assessed as animal survival rate at 30 mg/kg, iv relative to control; assay type: functional
[13] = Clearance in ICR mouse at 10 mg/kg, iv by LC-MS/MS analysis; assay type: ADME, organism-based; settings: in vivo
[14] = Half life in ICR mouse at 10 mg/kg, iv by LC-MS/MS analysis; assay type: ADME, organism-based; settings: in vivo
[15] = AUC (0 to t) in ICR mouse at 10 mg/kg, iv by LC-MS/MS analysis; assay type: ADME, organism-based; settings: in vivo
Staphylococcus aureus [16] = assay: Bactericidal activity against methicillin-resistant Staphylococcus aureus ATCC 43300 assessed as reduction in bacterial growth at 4 times MIC incubated for 24 hrs followed by compound dilution with saline and then incubated for 20 hrs on MH agar plate by time-kill kinetics assay relative to control; assay type: functional; set-up: scale not given: the % may be the effect or the level left
Staphylococcus aureus [17] = assay: Antibacterial against methicillin-resistant Staphylococcus aureus ATCC 43300 assessed as post antibiotic effect time at 4 times MIC incubated for 2 hrs followed by compound washout and then incubated for 20 hrs onto MH agar plate; assay type: functional
[18] = MRT in ICR mouse at 10 mg/kg, iv by LC-MS/MS analysis; assay type: ADME, organism-based; settings: in vivo
[19] = Tmax in ICR mouse at 10 mg/kg, iv by LC-MS/MS analysis; assay type: ADME, organism-based; settings: in vivo
[20] = AUC (0 to infinity) in ICR mouse at 10 mg/kg, iv by LC-MS/MS analysis; assay type: ADME, organism-based; set-up: dose 10 mg/kg, route intravenous, time infinity; settings: in vivo
Staphylococcus aureus [21] = assay: as §1, with “assay relative to control” for “assay”; assay type: functional; set-up: scale not given: the % may be the effect or the level left
Staphylococcus aureus [22] = assay: Bactericidal activity against methicillin-resistant Staphylococcus aureus ATCC 43300 assessed as reduction in colony forming unit at 4 times MIC incubated for 24 hrs followed by compound dilution with saline and then incubated for 20 hrs on MH agar plate by time-kill kinetics assay; assay type: functional

SMILES	MIC (Staphylococcus aureus [1])	MIC (Escherichia coli [2])	MIC (Staphylococcus aureus [3])	MIC (Escherichia coli [4])	MIC (Staphylococcus aureus [5])	further results
C=C[C@]1(C)C[C@@H](OC(=O)CSc2ccccc2NC(=O)CN2CCN(c3cccc(Cl)c3)CC2)[C@]2(C)[C@H](C)CC[C@]3(CCC(=O)[C@H]32)[C@@H](C)[C@@H]1O	1 µg/mL (≈ 1.38 µM)	> 32 µg/mL	2 µg/mL (≈ 2.77 µM)	> 32 µg/mL	1 µg/mL (≈ 1.38 µM)	–
C=C[C@]1(C)C[C@@H](OC(=O)CSc2ccccc2NC(=O)CN2CCC(O)C2)[C@]2(C)[C@H](C)CC[C@]3(CCC(=O)[C@H]32)[C@@H](C)[C@@H]1O (some centres not stated)	0.25 µg/mL (≈ 0.408 µM)	> 32 µg/mL	0.25 µg/mL (≈ 0.408 µM)	> 32 µg/mL	0.125 µg/mL (≈ 0.204 µM)	–
C=C[C@]1(C)C[C@@H](OC(=O)CSc2ccccc2NC(=O)CN2CCN(c3cccc(C)c3)CC2)[C@]2(C)[C@H](C)CC[C@]3(CCC(=O)[C@H]32)[C@@H](C)[C@@H]1O	> 8 µg/mL	> 32 µg/mL	> 8 µg/mL	> 32 µg/mL	> 8 µg/mL	–
C=C[C@]1(C)C[C@@H](OC(=O)CSc2ccccc2NC(=O)CN2CCOCC2)[C@]2(C)[C@H](C)CC[C@]3(CCC(=O)[C@H]32)[C@@H](C)[C@@H]1O	0.06 µg/mL (≈ 0.0979 µM)	> 32 µg/mL	0.125 µg/mL (≈ 0.204 µM)	> 32 µg/mL	0.06 µg/mL (≈ 0.0979 µM)	Time (Staphylococcus aureus [6]): 2.05 h; Cmax [7]: 1760 ng/mL; Activity (Staphylococcus aureus [8]): 1.4 log10CFU/ml; Time (Staphylococcus aureus [9]): 1.62 h; Activity (Staphylococcus aureus [10]): 2.19 log10CFU/ml; Time (Staphylococcus aureus [11]): 2.64 h; Activity (Staphylococcus aureus [12]): 60%; clearance [13]: 361 mL/min/kg; half-life [14]: 413 min; AUC(0-t) [15]: 470 ng·h/mL; Activity (Staphylococcus aureus [16]): 100%; Time (Staphylococcus aureus [17]): 3.47 h; MRT [18]: 36.6 min; Tmax [19]: 4.98 min; AUC(0-inf) [20]: 480 ng·h/mL
C=C[C@]1(C)C[C@@H](OC(=O)CSc2ccccc2NC(=O)CN2CCN(c3ccc([N+](=O)[O-])cc3)CC2)[C@]2(C)[C@H](C)CC[C@]3(CCC(=O)[C@H]32)[C@@H](C)[C@@H]1O	4 µg/mL (≈ 5.46 µM)	> 32 µg/mL	2 µg/mL (≈ 2.73 µM)	> 32 µg/mL	2 µg/mL (≈ 2.73 µM)	–
C=C[C@]1(C)C[C@@H](OC(=O)CSc2ccccc2NC(=O)CN2CCN(c3ccccc3F)CC2)[C@]2(C)[C@H](C)CC[C@]3(CCC(=O)[C@H]32)[C@@H](C)[C@@H]1O	8 µg/mL (≈ 11.3 µM)	> 32 µg/mL	1 µg/mL (≈ 1.42 µM)	> 32 µg/mL	2 µg/mL (≈ 2.83 µM)	–
C=C[C@]1(C)C[C@@H](OC(=O)CSc2ccccc2NC(=O)CN2CCN(c3cccc([N+](=O)[O-])c3)CC2)[C@]2(C)[C@H](C)CC[C@]3(CCC(=O)[C@H]32)[C@@H](C)[C@@H]1O	4 µg/mL (≈ 5.46 µM)	> 32 µg/mL	4 µg/mL (≈ 5.46 µM)	> 32 µg/mL	4 µg/mL (≈ 5.46 µM)	–
C=C[C@]1(C)C[C@@H](OC(=O)CSc2ccccc2NC(=O)CN2CCN(c3ccccc3O)CC2)[C@]2(C)[C@H](C)CC[C@]3(CCC(=O)[C@H]32)[C@@H](C)[C@@H]1O	2 µg/mL (≈ 2.84 µM)	> 32 µg/mL	0.5 µg/mL (≈ 0.71 µM)	> 32 µg/mL	1 µg/mL (≈ 1.42 µM)	–
C=C[C@]1(C)C[C@@H](OC(=O)CSc2ccccc2NC(=O)CN2CCN(c3ccccc3[N+](=O)[O-])CC2)[C@]2(C)[C@H](C)CC[C@]3(CCC(=O)[C@H]32)[C@@H](C)[C@@H]1O	> 8 µg/mL	> 32 µg/mL	> 8 µg/mL	> 32 µg/mL	4 µg/mL (≈ 5.46 µM)	–
C=C[C@]1(C)C[C@@H](OC(=O)CSc2ccccc2NC(=O)CN2CCCC2)[C@]2(C)[C@H](C)CC[C@]3(CCC(=O)[C@H]32)[C@@H](C)[C@@H]1O	0.125 µg/mL (≈ 0.209 µM)	> 32 µg/mL	0.125 µg/mL (≈ 0.209 µM)	> 32 µg/mL	0.25 µg/mL (≈ 0.419 µM)	–
C=C[C@]1(C)C[C@@H](OC(=O)CSc2ccccc2NC(=O)CN2CCN(c3ccc(OC)cc3)CC2)[C@]2(C)[C@H](C)CC[C@]3(CCC(=O)[C@H]32)[C@@H](C)[C@@H]1O	4 µg/mL (≈ 5.57 µM)	> 32 µg/mL	0.5 µg/mL (≈ 0.696 µM)	> 32 µg/mL	2 µg/mL (≈ 2.79 µM)	–
C=C[C@]1(C)C[C@@H](OC(=O)CSCCN(CC)CC)[C@]2(C)[C@H](C)CC[C@]3(CCC(=O)[C@H]32)[C@@H](C)[C@@H]1O [TIAMULIN]	1 µg/mL (≈ 2.03 µM)	–	0.5 µg/mL (≈ 1.01 µM)	–	0.5 µg/mL (≈ 1.01 µM)	Time (Staphylococcus aureus [6]): 1.9 h; Activity (Staphylococcus aureus [8]): 0.59 log10CFU/ml; Time (Staphylococcus aureus [9]): 1.53 h; Activity (Staphylococcus aureus [10]): 1.54 log10CFU/ml; Time (Staphylococcus aureus [11]): 1.65 h; Activity (Staphylococcus aureus [12]): 20%; Activity (Staphylococcus aureus [21]): 97%; Time (Staphylococcus aureus [17]): 2.04 h; Activity (Staphylococcus aureus [22]): 1.9 log10CFU/ml
